In patent US20230321055A1, “PREVENTIVE TREATMENT OF MIGRAINE” (priority 2022, published 2023):

Tests used:
[1] = system: participants with chronic migraine; assay: Phase 3 randomized, double-blind, placebo-controlled study of atogepant for prevention of chronic migraine: eDiary efficacy (migraine, headache and acute medication use days, responder rates); assay type: in vivo, human
Description: A phase 3, multicenter, randomized, double-blind, placebo-controlled, parallel-group study was carried out to evaluate the efficacy, safety, and tolerability of atogepant for the prevention of chronic migraine. A total of 778 participants from 133 sites in North America, Europe, and East Asia were randomized to one of three treatment arms (placebo, Atogepant 30 mg BID, and Atogepant 60 mg QD) in a 1:1:1 ratio.
This study comprised a 4-week screening and baseline period, a 12-week double blind treatment period, and a follow-up period of 4 additional weeks. The total study duration was 20 weeks. Participant disposition information and other relevant participant screening information may also be found in FIG. 19.
The primary end point was the change from baseline in the mean number of migraine days per month across the 12 week treatment period.
Secondary endpoints included change from baseline in mean monthly headache days across the 12 week treatment period; change from baseline in mean monthly acute medication use days across the 12-week treatment period; at least a 50% reduction in mean monthly migraine days across the 12-week treatment period; change from baseline in MSQ v2.1 Role Function-Restrictive domain score at week 12; change from baseline in mean AIM-D monthly functioning and activity impairment score across the 12-week treatment period; and change from baseline in HIT-6 total score at week 12.
Inclusion criteria included at least a 1-year history of chronic migraine consistent with diagnosis according to the International Classification of Headache Disorders, 3rd Edition (ICHD-3) and age of the participant at the time of migraine onset <50 years. Inclusion criteria further included confirmation of headache / migraine headache day frequency as follows: history of, on average, ≥15 headache days per month in the 3 months prior to Visit 1 in the opinion of the investigator AND >=15 headache days during the 4-week screening/baseline period per the electronic diary (eDiary) AND >=8 days during the 4-week screening/baseline period that qualify as being a migraine day per the eDiary. Participants were also required to be using a medically acceptable and effective method of birth control during the course of the entire study.
Exclusion criteria included a history of migraine, accompanied by diplopia or decreased level of consciousness, or retinal migraine; a current diagnosis of new persistent daily headache, trigeminal autonomic cephalgia (e.g., cluster headache), or painful cranial neuropathy; history of an inadequate response to >4 medications (2 of which have different mechanisms of action) prescribed for the prevention of migraine; and woman who is pregnant, planning to become pregnant during the course of the study, or currently lactating.
• All Screened Participants includes those screened participants who signed informed consent form. • The Intent-to-Treat Population includes all randomized participants. […] Treatment groups assigned as randomized.
A Subset of patients (11%) was allowed to use one concomitant migraine preventive medication (e.g., amitriptyline, propranolol, topiramate). Patients were allowed to use acute headache treatments (i.e., triptans, ergotamine derivatives, NSAIDs, acetaminophen, and opioids) as needed. Patients with acute medication overuse and medication overuse headache were also enrolled. The use of a concomitant medication that acts on the CGRP pathway was not permitted for either acute or preventive treatment of migraine. The study excluded patients with myocardial infarction, stroke, or transient ischemic attacks within six months prior to screening.
Outcomes for this analysis included change from baseline in mean MMDs during 4-week intervals, change in weekly migraine days during weeks 1-4, and the proportion of participants with a migraine on each day during the first 7 days of treatment. […] Baseline MMDs ranged from 18.6 to 19.2 across treatment groups. […]

[2] = oral administration; cited from earlier work
[3] = 60 mg QD, Off-Treatment Hypothetical Estimand population
[4] = 60 mg QD, acute medication over-users
[5] = 60 mg QD, mITT, listed as atogepant
[6] = range over 30 mg twice daily and 60 mg once daily

C[C@@H]1[C@H](c2c(F)ccc(F)c2F)C[C@H](NC(=O)c2cnc3c(c2)C[C@@]2(C3)C(=O)Nc3ncccc32)C(=O)N1CC(F)(F)F [Atogepant, (S)—N—((3S,5S,6R)-6-methyl-2-oxo-1-(2,2,2-trifluoroethyl)-5-(2,3,6-trifluorophenyl)piperidin-3-yl)-2′-oxo-1′,2′,5,7-tetrahydrospiro[cyclopenta[b]pyridine-6,3′-pyrrolo[2,3-b]pyridine]-3-carboxamide]
LS mean change in MMDs ([1]; 60 mg QD, Europe subpopulation of OTHE population (n=90)): −8.00
decrease of monthly migraine days across the 12 weeks ([1]; 60 mg QD, OTHE population): 6.75 days
>=50% reduction in 3-month average of monthly migraine days, Odds ratio Atogepant vs. Placebo [1, 3]: 1.90
Change from baseline in mean monthly acute medication use days across the 12-week treatment period, LS Mean [1, 3]: -6.19 days
Change from baseline in mean monthly acute medication use days across the 12-week treatment period, LSMD Atogepant vs. Placebo [1, 3]: -2.09 days
Change from baseline in mean monthly headache days across the 12-week treatment period, LS Mean [1, 3]: -6.90 days
Change from baseline in mean monthly headache days across the 12-week treatment period, LSMD Atogepant vs. Placebo [1, 3]: -1.72 days
Change from baseline in mean monthly migraine days across the 12-week treatment period, LS Mean [1, 3]: -6.75 days
Change from baseline in mean monthly migraine days across the 12-week treatment period, LSMD Atogepant vs. Placebo [1, 3]: -1.66 days
>=50% reduction in 3-month average of monthly migraine days, Responders ([1]; 60 mg QD, Off-Treatment Hypothetical Estimand population (N = 257)): 103 (40.1) n (%)
LSM change from baseline in mean monthly acute medication use days [1, 4]: −8.1
mean monthly acute medication use days, LSM difference vs placebo [1, 4]: −2.6
participants with ≥50% reduction in mean MMDs across the 12-week treatment period ([1]; 60 mg QD, acute medication overuse participants): 41.8%
>=50% reduction in 3-month average of monthly migraine days, Odds ratio Atogepant vs. Placebo ([1]; 60 mg QD, mITT): 2.04
Change from baseline in mean monthly acute medication use days across the 12-week treatment period, LS Mean ([1]; 60 mg QD, mITT): -6.23 days
Change from baseline in mean monthly acute medication use days across the 12-week treatment period, LSMD Atogepant vs. Placebo ([1]; 60 mg QD, mITT): -2.13 days
Change from baseline in mean monthly headache days across the 12-week treatment period, LS Mean ([1]; 60 mg QD, mITT): -7.00 days
Change from baseline in mean monthly headache days across the 12-week treatment period, LSMD Atogepant vs. Placebo ([1]; 60 mg QD, mITT): -1.87 days
Change from baseline in mean monthly migraine days across the 12-week treatment period, LS Mean ([1]; 60 mg QD, mITT): -6.88 days
Change from baseline in mean monthly migraine days across the 12-week treatment period, LSMD Atogepant vs. Placebo ([1]; 60 mg QD, mITT): -1.82 days
decrease of monthly migraine days across the 12 weeks ([1]; 60 mg QD, mITT): 6.88 days
participants with ≥30% reduction in mean MMDs across 12 weeks ([1]; 60 mg QD, mITT): 59.0%
participants with ≥50% reduction in mean MMDs across 12 weeks ([1]; 60 mg QD, mITT): 41.0%
participants with ≥75% reduction in mean MMDs across 12 weeks ([1]; 60 mg QD, mITT): 18.8%
Change from baseline in mean monthly migraine days across the 12-week treatment period, LS Mean [1, 5]: -6.9 days
Change from baseline in mean monthly migraine days across the 12-week treatment period, LSMD Atogepant vs. Placebo [1, 5]: -1.8 days
LSM change from baseline in mean MMDs across 12 weeks ([1]; 60 mg QD, participants with acute medication overuse at baseline): −7.5
mean change from baseline in MMDs ([1]; 60 mg QD, weeks 1-4 of treatment): -6.2 days
participants with <30% reduction in mean MMDs in month 1 who experienced ≥30% reduction in either month 2 or 3 ([1]; 60 mg once daily): 45/108
participants with <30% reduction in mean MMDs in month 1 who experienced ≥30% reduction in month 2 ([1]; 60 mg once daily): 31/113
participants with <50% reduction in mean MMDs in month 1 who experienced ≥50% reduction in either month 2 or 3 ([1]; 60 mg once daily): 38/139
participants with <50% reduction in mean MMDs in month 1 who experienced ≥50% reduction in month 2 ([1]; 60 mg once daily): 28/146
participants without ≥30% reduction in mean MMDs in months 1 or 2 who experienced a ≥30% response by the end of the trial ([1]; 60 mg once daily): 17.1%
participants without ≥50% reduction in mean MMDs in months 1 or 2 who experienced a ≥50% response by the end of the trial ([1]; 60 mg once daily): 8.2%
sustained response among participants with ≥75% response in month 1 ([1]; 60 mg once daily, mITT): 52.5%
sustained response of ≥30% in months 2 and 3 among participants with ≥30% response in month 1 ([1]; 60 mg once daily, mITT): 81.6%
sustained response of ≥50% in months 2 and 3 among participants with ≥50% response in month 1 ([1]; 60 mg once daily, mITT): 74.2%
likelihood of having a migraine vs placebo ([1]; first full day after treatment initiation, atogepant-treated participants, P≤0.03): significantly less likely
participants with <30% reduction in mean MMDs in month 1 who experienced ≥30% reduction in either month 2 or 3 [1, 6]: 41.7%-52.1%
participants with <30% reduction in mean MMDs in month 1 who experienced ≥30% reduction in month 2 [1, 6]: 27.4%-36.4%
participants with <50% reduction in mean MMDs in month 1 who experienced ≥50% reduction in either month 2 or 3 [1, 6]: 27.3%-39.4%
participants with <50% reduction in mean MMDs in month 1 who experienced ≥50% reduction in month 2 [1, 6]: 19.2%-23.5%
half-life [2]: approximately 11 hours
time to maximum plasma concentrations [2]: ≤ 2 h
